# Measured values from PubChem BioAssay (NCI).
# Where “and” joins values, the source holds several entries; their conditions need not be identical. Equal entries are not always repeated.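 The compound was tested at five concentrations on cells cultured in 96-well plates, with a 48-hour exposure period. GI50 = concentration required for 50% inhibition of growth. TGI denotes the concentration required for complete inhibition of growth.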
# Tests used:
# Test in all cases: NCI tumour cell line growth inhibition, 48 h
# [1] = test system: A549 NSCLC
# [2] = test system: HOP-62 NSCLC
# [3] = test system: NCI-H460 lung
# [4] = test system: SN12C renal
# [5] = test system: SNB-75 CNS
# [6] = test system: MDA-MB-231 breast
# [7] = test system: MOLT-4 leukemia
# [8] = test system: COLO 205 colon
# [9] = test system: ACHN renal
# [10] = test system: HT29 colon
Compound,GI50 [1],TGI [1],GI50 [2],TGI [2],GI50 [3],TGI [3],GI50 [4],TGI [4],GI50 [5],TGI [5],GI50 [6],TGI [6],GI50 [7],TGI [7],GI50 [8],TGI [8],GI50 [9],TGI [9],GI50 [10],TGI [10]
CC[C@]12C=CCN3CC[C@@]4(c5ccc(OC)cc5N(C)[C@H]4[C@@](O)(C(=O)OC)[C@@H]1OC(=O)CCC[P+](c1ccccc1)(c1ccccc1)c1ccccc1)[C@@H]32,1.5 µM and 1.11 µM,36.2 µM and 11.4 µM,1.84 µM and 2.18 µM,7.71 µM and 7.08 µM,1.38 µM and 1.31 µM,5.82 µM and 11 µM,0.719 µM and 0.491 µM,5.45 µM and 6.66 µM,0.554 µM and 0.218 µM,3.58 µM and 1.23 µM,0.467 µM and 0.525 µM,1.85 µM and 2.25 µM,1.04 µM and 1.1 µM,4.75 µM and 3.68 µM,0.161 µM and 0.208 µM,0.611 µM and 0.454 µM,5.32 µM and 7.58 µM,14.5 µM and 20.1 µM,0.334 µM and 0.403 µM,4.91 µM and 2.78 µM
Cn1c(=O)c2c(nc(Nc3cc(=O)[nH]c(=O)[nH]3)n2Cc2ccccc2)n(C)c1=O,> 100 µM,> 100 µM,> 100 µM,> 100 µM,> 100 µM,> 100 µM,> 100 µM,> 100 µM,12.5 µM,> 100 µM,> 100 µM,> 100 µM,> 100 µM,> 100 µM,> 100 µM,> 100 µM,> 100 µM,> 100 µM,> 100 µM,> 100 µM
COc1cc(C(=O)c2cc(C)c3[nH]c4ccc(Cl)cc4c3c2C)cc(OC)c1OC,0.134 µM,28.7 µM,0.0756 µM,19.5 µM,0.035 µM,3.74 µM,0.0509 µM,13.2 µM,0.0254 µM,3.96 µM,0.0496 µM,2.32 µM,0.046 µM,> 47.4 µM,0.517 µM,2.36 µM,0.0593 µM,12.8 µM,0.359 µM,10.7 µM
CC(C)(C)C(=O)OCOP(=O)(OCOC(=O)C(C)(C)C)C1CCCN(O)C1=O (stereo not drawn),0.637 µM,> 100 µM,0.487 µM,6.63 µM,0.561 µM,12.9 µM,0.334 µM,14.1 µM,1.43 µM,28.6 µM,0.397 µM,20 µM,0.431 µM,2.69 µM,0.6 µM,3.64 µM,0.34 µM,7.97 µM,0.335 µM,8.53 µM
O=C(CCCn1ccnc1[N+](=O)[O-])NCCn1cncc1[N+](=O)[O-],,> 100 µM,,> 100 µM,,> 100 µM,,> 100 µM,,> 100 µM,,> 100 µM,,> 100 µM,,> 100 µM,,> 100 µM,,> 100 µM
Oc1ccc(Cl)cc1Cc1cc(Cl)cc(Cl)c1O,5.48 µM,47.6 µM,3.68 µM,21 µM,3.22 µM,13.2 µM,3.7 µM,21.8 µM,5.14 µM,40.8 µM,7.92 µM,48.1 µM,5.52 µM,32.1 µM,19.5 µM,36.6 µM,3.69 µM,18 µM,19.8 µM,43.9 µM
COc1ccc(C(=O)c2cc(OC)c(C)c(OC)c2)cc1OC(=O)CCl,1.11 µM,> 100 µM,0.668 µM,> 100 µM,0.37 µM,12.7 µM,0.638 µM,37.1 µM,0.154 µM,> 100 µM,0.353 µM,18.6 µM,0.145 µM,18 µM,7.78 µM,69.4 µM,0.7 µM,35.5 µM,4.21 µM,27.6 µM
O=c1n(CC2CO2)c(=O)n(CC2CO2)c(=O)n1CC1CO1 (stereo not drawn),2.04 µM,134 µM and > 100 µM,6.38 µM and 15.1 µM,38.8 µM and 96.1 µM and > 100 µM,6.61 µM and 0.743 µM,32 µM and 29.6 µM and 12.2 µM,17.7 µM and 3.55 µM,52 µM and 88.1 µM and > 100 µM,6.8 µM and 21.1 µM,89.8 µM and > 100 µM,35.1 µM and 52.4 µM,84.8 µM and > 100 µM,5.09 µM and 2.95 µM,210 µM and > 100 µM,25 µM and 11.1 µM,78.4 µM and 52.2 µM and 25.5 µM,3.68 µM and 0.504 µM,140 µM and > 100 µM,24.4 µM,62.3 µM and > 100 µM
CC(=O)OC1Oc2ccccc2-c2oc(=O)c(-c3cc(=O)oc4cc(O)ccc34)cc21 (stereo not drawn),24 µM,> 100 µM,20.8 µM,55.2 µM,21.5 µM,73.7 µM,30.9 µM,> 100 µM,22.3 µM,72.2 µM,24.9 µM,81.5 µM,4.33 µM,20.1 µM,18.2 µM,51.2 µM,23.1 µM,79.2 µM,26.4 µM,> 100 µM
Ic1ccc(Nc2nc3nonc3nc2Nc2ccc(I)cc2)cc1,0.282 µM,> 100 µM,0.302 µM,0.961 µM,0.156 µM,> 32 µM,,,0.227 µM,> 100 µM,0.209 µM,0.641 µM,0.256 µM,1.06 µM,0.265 µM,0.937 µM,0.269 µM,> 100 µM,0.265 µM,> 100 µM
